From the supplement of paper PMC11368000

How the values were obtained:
Conditions in all cases: exposure time: 90 min
1368 [1] = donor line of iPSC-derived cardiomyocytes; assay: POD (EC05) for increase in beat frequency (positive chronotrope) vs vehicle; higher = less potent (higher point of departure)
Procedure, shortened: (§1)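 Cardiomyocytes derived from human iPSCs of 16 donors were grown 14 days in gelatin-coated 384-well plates, loaded 2 h with a fluorescent Ca2+ dye, then exposed for 90 min at 37 °C to final concentrations of 0.1, 1, 10 and 100 µM in 0.5% DMSO. A FLIPR Tetra recorded Ca2+ flux at 8 frames/s for 100 s before and after exposure. Points of departure for each donor were derived by hierarchical Bayesian Hill fitting of vehicle-normalised beat frequency, decay-to-rise ratio or peak frequency. The thresholds applied were a 5% change, or a 95% loss for peak frequency.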

1392 [2] = donor line of iPSC-derived cardiomyocytes; assay: as above
Procedure, shortened: as §1

1535 [3] = donor line of iPSC-derived cardiomyocytes; assay: as above
Procedure, shortened: as §1

30145 [4] = donor line of iPSC-derived cardiomyocytes; assay: as above
Procedure, shortened: as §1

1083 = donor line of iPSC-derived cardiomyocytes; assay: POD (EC05) for increase in Ca2+ transient decay-to-rise ratio (QT prolongation) vs vehicle; higher = less potent (higher point of departure)
Method: (§2)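 Human iPSC-derived cardiomyocytes from 16 donors were exposed for 90 min at 37 °C to each PFAS at 0.1, 1, 10 and 100 µM in 0.5% DMSO, 384-well plates. Kinetic Ca2+ flux (FLIPR) and Hoechst nuclei counts were normalised to vehicle wells and fitted with a hierarchical Bayesian Hill model to give donor-specific PODs: EC05 for beat-rate increase or decrease and for decay-to-rise ratio increase (QT proxy), EC95 for peak-frequency loss (asystole), EC10 for total cell number loss. 0.03 µM is the lower bound.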

1118 = donor line of iPSC-derived cardiomyocytes; assay: as above
Method: as §2

11235 = donor line of iPSC-derived cardiomyocytes; assay: as above
Method: as §2

1309 = donor line of iPSC-derived cardiomyocytes; assay: as above
Method: as §2

1368 [5] = assay: as above
Method: as §2

1392 [6] = assay: as above
Method: as §2

1434 = donor line of iPSC-derived cardiomyocytes; assay: as above
Method: as §2

1516 = donor line of iPSC-derived cardiomyocytes; assay: as above
Method: as §2

1518 = donor line of iPSC-derived cardiomyocytes; assay: as above
Method: as §2

1531 = donor line of iPSC-derived cardiomyocytes; assay: as above
Method: as §2

1535 [7] = assay: as above
Method: as §2

1565 = donor line of iPSC-derived cardiomyocytes; assay: as above
Method: as §2

20032 = donor line of iPSC-derived cardiomyocytes; assay: as above
Method: as §2

20084 = donor line of iPSC-derived cardiomyocytes; assay: as above
Method: as §2

30145 [8] = assay: as above
Method: as §2

30171 = donor line of iPSC-derived cardiomyocytes; assay: as above
Method: as §2

SMILES	POD vs vehicle 1368 [1] [µM]	POD vs vehicle 1392 [2] [µM]	POD vs vehicle 1535 [3] [µM]	POD vs vehicle 30145 [4] [µM]	POD vs vehicle 1083 [µM]	POD vs vehicle 1118 [µM]	POD vs vehicle 11235 [µM]	POD vs vehicle 1309 [µM]	POD vs vehicle 1368 [5] [µM]	POD vs vehicle 1392 [6] [µM]	POD vs vehicle 1434 [µM]	POD vs vehicle 1516 [µM]	POD vs vehicle 1518 [µM]	POD vs vehicle 1531 [µM]	POD vs vehicle 1535 [7] [µM]	POD vs vehicle 1565 [µM]	POD vs vehicle 20032 [µM]	POD vs vehicle 20084 [µM]	POD vs vehicle 30145 [8] [µM]	POD vs vehicle 30171 [µM]
O=C(O)CCC(F)(F)C(F)(F)C(F)(F)C(F)(F)C(F)(F)C(F)(F)C(F)(F)F [3-Perfluoroheptylpropanoic_acid]	> 100	> 100	> 100	> 100	> 100	> 100	> 100	> 100	> 100	> 100	> 100	> 100	> 100	25.4	> 100	> 100	33.8	36.7	> 100	> 100
OCCC(F)(F)C(F)(F)C(F)(F)C(F)(F)C(F)(F)C(F)(F)F [6:2 Fluorotelomer alcohol]	> 100	> 100	5.24	> 100	> 100	> 100	> 100	> 100	> 100	> 100	> 100	> 100	> 100	> 100	> 100	> 100	> 100	> 100	> 100	> 100
O=S(=O)(O)CCC(F)(F)C(F)(F)C(F)(F)C(F)(F)C(F)(F)C(F)(F)F [6:2 Fluorotelomer sulfonic acid]	> 100	> 100	> 100	> 100	> 100	> 100	> 100	> 100	> 100	> 100	> 100	> 100	> 100	> 100	> 100	> 100	> 100	> 100	> 100	> 100
OCCC(F)(F)C(F)(F)C(F)(F)C(F)(F)C(F)(F)C(F)(F)C(F)(F)C(F)(F)F [8:2 Fluorotelomer alcohol]	> 100	> 100	> 100	> 100	> 100	> 100	> 100	> 100	> 100	> 100	> 100	> 100	> 100	> 100	> 100	> 100	> 100	> 100	> 100	> 100
O=S(=O)(O)CCC(F)(F)C(F)(F)C(F)(F)C(F)(F)C(F)(F)C(F)(F)C(F)(F)C(F)(F)F [8:2 Fluorotelomer sulfonic acid]	77.4	> 100	> 100	> 100	> 100	> 100	> 100	> 100	> 100	> 100	17.2	38	> 100	47.4	> 100	> 100	> 100	21.9	> 100	20.1
O=C(O)C(F)(F)C(F)(F)C(F)(F)C(F)(F)C(F)(F)C(F)(F)C(F)(F)C(F)(F)Cl [9-Chloro-perfluorononanoic_acid]	> 100	> 100	> 100	> 100	> 100	> 100	> 100	> 100	> 100	> 100	> 100	> 100	> 100	> 100	> 100	> 100	> 100	> 100	> 100	> 100
O=P(O)(O)CCC(F)(F)C(F)(F)C(F)(F)C(F)(F)C(F)(F)C(F)(F)C(F)(F)C(F)(F)F [((Perfluorooctyl)ethyl)phosphonic_acid]	> 100	> 100	> 100	> 100	> 100	> 100	> 100	> 100	> 100	> 100	> 100	> 100	> 100	> 100	> 100	> 100	> 100	> 100	> 100	> 100
OCC(F)(F)C(F)(F)C(F)(F)C(F)(F)C(F)(F)C(F)F [Dodecafluoroheptanol]	> 100	> 100	> 100	> 100	> 100	> 100	> 100	> 100	> 100	> 100	> 100	> 100	> 100	> 100	> 100	> 100	0.504	> 100	> 100	> 100
COC(=O)C(F)(F)C(F)(F)OC(F)(C(F)(F)F)C(F)(F)OC(F)=C(F)F (stereo not given) [Methyl_perfluoro(3-(1-ethenyloxypropan-2-yloxy)propanoate)]	> 100	> 100	> 100	> 100	> 100	> 100	> 100	> 100	> 100	> 100	> 100	> 100	> 100	24.9	> 100	> 100	> 100	37.5	> 100	> 100
CN(CCO)S(=O)(=O)C(F)(F)C(F)(F)C(F)(F)C(F)(F)C(F)(F)C(F)(F)C(F)(F)C(F)(F)F [N-Methyl-N-(2-hydroxyethyl)perfluorooctanesulfonamide]	> 100	> 100	> 100	> 100	> 100	> 100	> 100	> 100	> 100	> 100	> 100	> 100	> 100	> 100	> 100	> 100	> 100	> 100	> 100	> 100
